# Experiments:
# mice affected by EAE = assay: Experimental autoimmune encephalomyelitis (EAE) model of MS; assay type: in vivo, C57BL/6 mice
# Method: The effect of G79 was tested in the animal model of MS, the experimental autoimmune encephalomyelitis (EAE), by performing a preventive trial (in which the therapy starts at the time of the induction of the disease) and a curative trial (in which the therapy starts when the animals are already suffering from the disease). Female C57BL/6 mice from Harlan (8-12 weeks old) were immunized subcutaneously in both hind pads with 300 μg of myelin oligodendrocyte glycoprotein (MOG) peptide 35-55 (Spikem, Firenze) emulsified with 50 μg of Mycobacterium tuberculosis (H37Ra strain; Difco, Detroit, Mich.) in incomplete Freund's adjuvant (IFA) as previously described in Palacios et al., 2007. The mice were injected intraperitoneally with Pertussis toxin (Sigma) (500 ng) at the time of immunization and 2 days later. The animals were weighted and inspected for clinical signs of disease on a daily basis by a blinded observer. The severity of the disease EAE was assessed for 30 days according to the following scale: 0=normal; 0.5=mild limp tail; 1=limp tail; 2=mild paraparesis of the hind limbs, unsteady gait; 3=moderate paraparesis, voluntary movements still possible; 4=paraplegia or tetraparesis; 5=moribund state. At the end of the study, the mice were anesthetized and perfused intracardially with 4% of paraformaldehyde in 0.1 M phosphate buffer (pH 7.6). The brains, spinal cords and spleens were dissected and either fixed or frozen until use. Also serum was obtained from all the animals included in the study. This procedure was approved by the University of Barcelona Committee on Animal Care.
# Two different experiments were performed to assess both the preventive effect and curative effect of G79, compared to other drugs targeting neurotrophin pathway (Gambogic amide and Xaliproden) or one of the first line therapy for the treatment of MS, i.e., Glatiramer acetate.
# For the preventive trial, 10 animals were treated with intraperitoneal injection of G79 at the concentration of 40 mg/kg, 10 animals were treated with intraperitoneal injection of G79 at the concentration of 100 mg/kg, 10 animals were treated with intraperitoneal injection of Gambogic amide at the concentration of 2 mg/kg, 10 animals were treated with oral administration of Xaliproden at the concentration of 10 mg/kg. As both Gambogic amide and Xaliproden were diluted with different percentage of DMSO, 5 animals were treated with intraperitoneal injection of placebo (physiologic solution plus 1% DMSO) and other 5 animals were treated with placebo oral (physiologic solution plus 2.5% DMSO), respectively. The treatments were performed daily, starting after the immunization day.
# For the curative trial, to reduce the discrepancy between the oral administration and intraperitoneal injections, as stress can deeply affect the development of the clinical scores in animals, all the treatments were performed by intraperitoneal injections. For this study, 8 animals were treated with G79 at the concentration of 40 mg/kg, 8 animals were treated with G79 at the concentration of 100 mg/kg, 8 animals were treated with Gambogic amide at the concentration of 2 mg/kg, 8 animals were treated with Xaliproden at the concentration of 10 mg/kg, 8 animals were treated with Glatiramer acetate at the concentration of 5 mg/kg, 8 animals were treated with placebo (physiologic solution plus 2.5% DMSO). The treatments were performed daily starting after the increase of the clinical score at score 2 (after the second day at this score).
# iNOS = assay: Neuroinflammation in vitro model, organotypic cerebellar culture challenged with LPS, real-time PCR; assay type: cell-based, mice; details: G79 100 ng/ml pre-treatment; 24 h after the challenge with LPS
# Excerpt: Neonates mice (day 8 after birth (P8)) were decapitated after anaesthetic IP injection and whole brains were removed aseptically. Cerebellum was separated from the rest of the brain and placed on a metal vibratome plate. Once the cerebellum was attached to the surface of the plate, 400 μm sagittal sections were cut using the vibratome. The slices were then transferred with a plastic Pasteur pipette to a cell culture plate containing an organotypic culture medium (5% CO2 in 50% basal medium with Earle's salt, 25% Hank's buffered salt solution, 25% inactivated horse serum, 5 mg/ml glucose, 0.25 mM L-glutamine and 25 μg/ml penicillin/streptomycin). After separating and isolating each slice, the cerebellar slices were then transferred to 6-well plates (3 slices for each well) containing a 30 mm culture plate insert with 0.4 μm pores (Millipore) and 1 ml full culture medium, pre-conditioned by incubation for at least 2 hours at 37° C., and 5% CO2 was added into each well below the insert. […]
# Organotypic slices collected from the LPS stimulation experiment were homogenized in RNA lysis buffer. […] Primers and target-specific fluorescence-labeled TaqMan probes were purchased from Applied Biosystems (TaqMan Gene Expression assays). […] The expression of the gene tested was quantified relative to the level of the housekeeping gene GAPDH.
# [1] = preventive trial, 100 mg/Kg i.p.
smiles,measurement,setting,value
"CC(C)CN(CC(=O)N(CCCN1CCCC1=O)CC(N)=O)C(=O)CNCCc1ccccc1F [Compound G79, [N-(2-(2′-Fluorophenyl)ethyl)glycyl]-[N-(2-methylpropyl)glycyl]-N-[3-(2′-oxopyrrolidinyl)propyl]glycinamide]",therapeutic effect in ameliorating the clinical score (in words),"mice affected by EAE; curative trial, 100 mg/Kg i.p.",best therapeutic effect in ameliorating the clinical score
same,clinical score,"mice affected by EAE; curative trial, 100 mg/Kg i.p., 16th day",2.8±1.2
same,clinical score,"mice affected by EAE; curative trial, 100 mg/Kg i.p., day 19th",1.75±1
same,clinical score,"mice affected by EAE; curative trial, 100 mg/Kg i.p., day not printed (between day 16th and 23rd)",1.6±0.8
same,"delaying the disease, comparison of the doses",mice affected by EAE; [1],more effective in delaying the disease
same,final clinical score at day 30th,mice affected by EAE; [1],lower compared to placebo treated animals
same,onset of the disease (clinical score),"mice affected by EAE; preventive trial, G79 40 and 100 mg/kg i.p. daily","delay in the presence of the disease, although not significant"
same,expression of iNOS compared to placebo pre-treated samples,iNOS,decrease in the expression of iNOS
